Results as given in US12336981B2, “Compounds and compositions for the inhibition of NAMPT” (Valo Health, Inc., priority 2010, dated 2025).
Read-outs that look alike come from different tables or passages of the source.

Tests used:
A2780 cells = test: In-vitro cell proliferation assay (SRB), A2780 cells; type: cell-based; conditions: A2780 cells, 72 hours, read-out: A2780 IC50
In short: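 Viable cells measured by SRB staining after 6% TCA fixation, absorbance 570 nm. Media-only background subtracted; % inhibition derived at two compound concentrations.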

NAMPT = biological target: T1, NAMPT (Homo sapiens, UniProt P43490); test: Biochemical inhibition assay: NAMPT enzymatic reaction, NMN quantified by mass spectrometry; conditions: read-out: Biochem IC50
T1 construct: His tag; host or cells: E. coli
T1 sequence (P43490 whole entry): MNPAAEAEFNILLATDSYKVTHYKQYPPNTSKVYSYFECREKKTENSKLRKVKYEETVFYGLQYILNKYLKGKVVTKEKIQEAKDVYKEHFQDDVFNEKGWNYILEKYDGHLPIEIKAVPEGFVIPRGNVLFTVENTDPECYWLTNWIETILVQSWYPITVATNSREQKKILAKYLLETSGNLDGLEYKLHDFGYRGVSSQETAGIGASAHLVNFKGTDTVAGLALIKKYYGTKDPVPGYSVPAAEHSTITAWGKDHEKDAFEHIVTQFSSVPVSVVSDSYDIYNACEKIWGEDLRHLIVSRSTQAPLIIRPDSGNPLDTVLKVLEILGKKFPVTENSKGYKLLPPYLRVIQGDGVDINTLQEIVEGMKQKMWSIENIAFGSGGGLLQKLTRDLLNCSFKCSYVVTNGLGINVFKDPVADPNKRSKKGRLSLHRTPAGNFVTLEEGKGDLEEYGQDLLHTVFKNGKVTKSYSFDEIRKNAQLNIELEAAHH
In short: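 Inhibition of E. coli-expressed His-tagged human NAMPT, measured as NMN formation by mass spectrometry after a 30 min room-temperature reaction containing 1 μM NAM, 100 μM PRPP and 2.5 mM ATP.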

[1] = Homo sapiens, A2780, 72 h, SRB assay

COc1c(F)cccc1S(=O)(=O)c1ccc(CNC(=O)c2cnc3[nH]ncc3c2)cc1 [N-({4-[(3-fluoro-2-methoxybenzene)sulfonyl]phenyl}methyl)-1H-pyrazolo[3,4-b]pyridine-5-carboxamide]
IC50 (A2780 cells; Homo sapiens, A2780, 72 h, SRB): 100 to 1000 nM | IC50 (NAMPT; NAMPT enzymatic reaction): 121 nM

COc1ccc(C#N)cc1S(=O)(=O)c1ccc(CNC(=O)c2ccc3nccn3c2)cc1
IC50 (A2780 cells; Homo sapiens, A2780, 72 h, SRB): 11.9 nM | IC50 (NAMPT; NAMPT enzymatic reaction): 14.6 nM

N#Cc1ccccc1S(=O)(=O)c1ccc(CNC(=O)c2cnc3[nH]ncc3c2)cc1 [N-({4-[(2-cyanobenzene)sulfonyl]phenyl}methyl)-1H-pyrazolo[3,4-b]pyridine-5-carboxamide]
IC50 (A2780 cells; Homo sapiens, A2780, 72 h, SRB): 100 to 1000 nM | IC50 (NAMPT; NAMPT enzymatic reaction): 131 nM

COc1ccccc1S(=O)(=O)c1ccc(CNC(=O)c2cc3ccncc3s2)cc1 [N-({4-[(2-methoxybenzene)sulfonyl]phenyl}methyl)thieno[2,3-c]pyridine-2-carboxamide]
IC50 (A2780 cells; [1]): 5.3 nM | IC50 (NAMPT; NAMPT enzymatic reaction): 7 nM

COc1cc(S(=O)(=O)c2ccc(CNC(=O)c3cnc4nccn4c3)cc2)ccc1Cl
IC50 (A2780 cells; Homo sapiens, A2780, 72 h, SRB): 5.2 nM | IC50 (NAMPT; NAMPT enzymatic reaction): 2.7 nM

O=C(NCc1ccc(S(=O)(=O)c2cccnc2N2CCOCC2)cc1)c1cnc2nccn2c1 [N-({4-[2-(morpholin-4-yl)pyridine-3-sulfonyl]phenyl}methyl)imidazo[1,2-a]pyrimidine-6-carboxamide]
IC50 (A2780 cells; Homo sapiens, A2780, 72 h, SRB): 100 to 1000 nM | IC50 (NAMPT; NAMPT enzymatic assay): 31.2 nM

CCCCOc1cc(F)ccc1S(=O)(=O)c1ccc(CNC(=O)c2cnc3[nH]ncc3c2)cc1 [N-({4-[(2-butoxy-4-fluorobenzene)sulfonyl]phenyl}methyl)-1H-pyrazolo[3,4-b]pyridine-5-carboxamide]
IC50 (A2780 cells; Homo sapiens, A2780, 72 h, SRB): 100 to 1000 nM | IC50 (NAMPT; NAMPT enzymatic reaction): 176 nM

Cc1ccncc1S(=O)(=O)c1ccc(CNC(=O)c2cnc3nccn3c2)cc1 [N-{[4-(4-methylpyridine-3-sulfonyl)phenyl]methyl}imidazo[1,2-a]pyrimidine-6-carboxamide]
IC50 (A2780 cells; Homo sapiens, A2780, 72 h, SRB): 100 to 1000 nM | IC50 (NAMPT; NAMPT enzymatic assay): 19.1 nM

O=C(NCc1ccc(S(=O)(=O)c2ccc(F)c(F)c2)cc1)c1cc2cnccc2[nH]1 [N-({4-[(3,4-difluorobenzene)sulfonyl]phenyl}methyl)-1H-pyrrolo[3,2-c]pyridine-2-carboxamide]
IC50 (A2780 cells; [1]): 14 nM | IC50 (NAMPT; NAMPT enzymatic reaction): 13 nM

CCOc1ccccc1S(=O)(=O)c1ccc(CNC(=O)c2cnc3[nH]ncc3c2)cc1
IC50 (A2780 cells; Homo sapiens, A2780, 72 h, SRB): 26.9 nM | IC50 (NAMPT; NAMPT enzymatic reaction): 49.3 nM

COc1cc(Cl)cc(S(=O)(=O)c2ccc(CNC(=O)c3cc4cnccc4[nH]3)cc2)c1 [N-({4-[(3-chloro-5-methoxybenzene)sulfonyl]phenyl}methyl)-1H-pyrrolo[3,2-c]pyridine-2-carboxamide]
IC50 (A2780 cells; Homo sapiens, A2780, 72 h, SRB): 2.5 nM | IC50 (NAMPT; NAMPT enzymatic reaction): 17 nM

N#Cc1ccccc1S(=O)(=O)c1ccc(CNC(=O)c2ccc3nccn3c2)cc1
IC50 (A2780 cells; Homo sapiens, A2780, 72 h, SRB): 61.3 nM | IC50 (NAMPT; NAMPT enzymatic reaction): 15.6 nM

O=C(NCc1ccc(S(=O)(=O)c2ccc(-n3cccn3)cc2F)cc1)c1ccc2nccn2c1 [N-[(4-{[2-fluoro-4-(1H-pyrazol-1-yl)benzene]sulfonyl}phenyl)methyl]imidazo[1,2-a]pyridine-6-carboxamide]
IC50 (A2780 cells; Homo sapiens, A2780, 72 h, SRB): 12.8 nM | IC50 (NAMPT; NAMPT enzymatic assay): 8.44 nM

COc1cc(C)cc(OC)c1S(=O)(=O)c1ccc(CNC(=O)c2cc3ccncc3o2)cc1 [N-({4-[(2,6-dimethoxy-4-methylbenzene)sulfonyl]phenyl}methyl)furo[2,3-c]pyridine-2-carboxamide]
IC50 (A2780 cells; Homo sapiens, A2780, 72 h, SRB): 23 nM | IC50 (NAMPT; NAMPT enzymatic reaction): 5 nM

O=CNc1ccc(C(=O)NCc2ccc(S(=O)(=O)c3cc(F)cc(F)c3)cc2)cn1 [5-N-({4-[(3,5-difluorobenzene)sulfonyl]phenyl}methyl)pyridine-2,5-diamido]
IC50 (A2780 cells; Homo sapiens, A2780, 72 h, SRB): 661 nM | IC50 (NAMPT; NAMPT enzymatic reaction): 1000 to 10000 nM

O=C(NCc1ccc(S(=O)(=O)c2ccccc2Cl)cc1)c1cc2cnccc2[nH]1 [N-({4-[(2-chlorobenzene)sulfonyl]phenyl}methyl)-1H-pyrrolo[3,2-c]pyridine-2-carboxamide]
IC50 (A2780 cells; [1]): 117 nM | IC50 (NAMPT; NAMPT enzymatic reaction): 6 nM

Cc1ccc(Cl)c(S(=O)(=O)c2ccc(CNC(=O)c3cc4ccncc4o3)cc2)c1
IC50 (A2780 cells; Homo sapiens, A2780, 72 h, SRB): 14.9 nM | IC50 (NAMPT; NAMPT enzymatic reaction): 17.8 nM

CCc1ccccc1S(=O)(=O)c1ccc(CNC(=O)c2ccc3nccn3c2)cc1 [N-({4-[(2-ethylbenzene)sulfonyl]phenyl}methyl)imidazo[1,2-a]pyridine-6-carboxamide]
IC50 (A2780 cells; Homo sapiens, A2780, 72 h, SRB): 12.9 nM | IC50 (NAMPT; NAMPT enzymatic reaction): 30.2 nM

O=C(NCc1ccc(S(=O)(=O)c2cc(Cl)ccc2OCC(F)F)cc1)c1cc2cnccc2[nH]1
IC50 (A2780 cells; Homo sapiens, A2780, 72 h, SRB): 0.5 nM | IC50 (NAMPT; NAMPT enzymatic assay): 5 nM

Cc1ccc(F)cc1S(=O)(=O)c1ccc(CNC(=O)c2cc3cnccc3[nH]2)cc1 [N-({4-[(5-fluoro-2-methylbenzene)sulfonyl]phenyl}methyl)-1H-pyrrolo[3,2-c]pyridine-2-carboxamide]
IC50 (A2780 cells; [1]): 7 nM | IC50 (NAMPT; NAMPT enzymatic reaction): 11 nM

Cc1cccc(S(=O)(=O)c2ccc(CNC(=O)c3cc4cnccc4[nH]3)cc2)c1F
IC50 (A2780 cells; Homo sapiens, A2780, 72 h, SRB): 7 nM | IC50 (NAMPT; NAMPT enzymatic reaction): 75.8 nM

COc1cccc(S(=O)(=O)c2ccc(CNC(=O)c3cnc4[nH]ncc4c3)cc2)c1
IC50 (A2780 cells; Homo sapiens, A2780, 72 h, SRB): 10 nM | IC50 (NAMPT; NAMPT enzymatic reaction): 20.9 nM

CC(C)c1ccc(S(=O)(=O)c2ccc(CNC(=O)c3cc4ccncc4o3)cc2)cc1
IC50 (A2780 cells; Homo sapiens, A2780, 72 h, SRB): 8 nM | IC50 (NAMPT; NAMPT enzymatic assay): 11.9 nM

COCc1cccc(S(=O)(=O)c2ccc(CNC(=O)c3cnc4[nH]ncc4c3)cc2)c1 [N-[(4-{[3-(methoxymethyl)benzene]sulfonyl}phenyl)methyl]-1H-pyrazolo[3,4-b]pyridine-5-carboxamide]
IC50 (A2780 cells; SRB): 39.4 nM | IC50 (NAMPT; NAMPT enzymatic assay): 38.7 nM

CCCOc1ccc(S(=O)(=O)c2ccc(CNC(=O)c3cnc4[nH]ncc4c3)cc2)cc1Cl [N-({4-[(3-chloro-4-propoxybenzene)sulfonyl]phenyl}methyl)-1H-pyrazolo[3,4-b]pyridine-5-carboxamide]
IC50 (A2780 cells; Homo sapiens, A2780, 72 h, SRB): 9.58 nM | IC50 (NAMPT; NAMPT enzymatic reaction): 7.9 nM

Cc1ccc(S(=O)(=O)c2ccc(CNC(=O)c3ccc4nccn4c3)cc2)cc1 [N-({4-[(4-methylbenzene)sulfonyl]phenyl}methyl)imidazo[1,2-a]pyridine-6-carboxamide]
IC50 (A2780 cells; Homo sapiens, A2780, 72 h, SRB): 12 nM | IC50 (NAMPT; NAMPT enzymatic reaction): 17.6 nM

O=C(NCc1ccc(S(=O)(=O)c2cccc(-c3ncccn3)c2)cc1)c1ccc2nccn2c1
IC50 (A2780 cells; Homo sapiens, A2780, 72 h, SRB): 3.8 nM | IC50 (NAMPT; NAMPT enzymatic assay): 21.9 nM

O=C(NCc1ccc(S(=O)(=O)c2cncc(F)c2)cc1)c1ccc2nccn2c1 [N-{[4-(5-fluoropyridine-3-sulfonyl)phenyl]methyl}imidazo[1,2-a]pyridine-6-carboxamide]
IC50 (A2780 cells; Homo sapiens, A2780, 72 h, SRB): 13.7 nM | IC50 (NAMPT; NAMPT enzymatic assay): 27.8 nM

Cc1c(F)cccc1S(=O)(=O)c1ccc(CNC(=O)c2ccc3nccn3c2)cc1
IC50 (A2780 cells; Homo sapiens, A2780, 72 h, SRB): 13.2 nM | IC50 (NAMPT; NAMPT enzymatic reaction): 46.9 nM

O=C(NCc1ccc(S(=O)(=O)c2ccc(Cl)cc2C(F)(F)F)cc1)c1cc2ccncc2s1
IC50 (A2780 cells; Homo sapiens, A2780, 72 h, SRB): 9.6 nM | IC50 (NAMPT; NAMPT enzymatic assay): 7 nM

COc1cccc(S(=O)(=O)c2ccc(CNC(=O)c3cnc4nccn4c3)cc2)n1 [N-{[4-(6-methoxypyridine-2-sulfonyl)phenyl]methyl}imidazo[1,2-a]pyrimidine-6-carboxamide]
IC50 (A2780 cells; Homo sapiens, A2780, 72 h, SRB): 5.9 nM | IC50 (NAMPT; NAMPT enzymatic assay): 2.2 nM

COc1cc(Cl)ccc1S(=O)(=O)c1ccc(CNC(=O)c2cnc3nccn3c2)cc1
IC50 (A2780 cells; Homo sapiens, A2780, 72 h, SRB): 24.7 nM | IC50 (NAMPT; NAMPT enzymatic reaction): 3.3 nM

CCCOc1ccc(S(=O)(=O)c2ccc(CNC(=O)c3ccc4nccn4c3)cc2)cc1F
IC50 (A2780 cells; Homo sapiens, A2780, 72 h, SRB): 4.4 nM | IC50 (NAMPT; NAMPT enzymatic reaction): 22.1 nM

CC(C)COc1cc(F)cc(S(=O)(=O)c2ccc(CNC(=O)c3cc4ccncc4o3)cc2)c1 [N-[(4-{[3-fluoro-5-(2-methylpropoxy)benzene]sulfonyl}phenyl)methyl]furo[2,3-c]pyridine-2-carboxamide]
IC50 (A2780 cells; Homo sapiens, A2780, 72 h, SRB): 12.9 nM | IC50 (NAMPT; NAMPT enzymatic assay): 10.3 nM

Cc1ccc(S(=O)(=O)c2ccc(CNC(=O)c3cc4cnccc4[nH]3)cc2)c(Cl)c1
IC50 (A2780 cells; Homo sapiens, A2780, 72 h, SRB): 2.7 nM | IC50 (NAMPT; NAMPT enzymatic reaction): 8 nM

COc1ccc(S(=O)(=O)c2ccc(CNC(=O)c3cc4ccncc4o3)cc2)c(C(F)(F)F)c1
IC50 (A2780 cells; Homo sapiens, A2780, 72 h, SRB): 15.2 nM | IC50 (NAMPT; NAMPT enzymatic assay): 14.6 nM

O=C(NCc1ccc(S(=O)(=O)c2cccc(C(F)(F)F)n2)cc1)c1cnc2nccn2c1 [N-({4-[6-(trifluoromethyl)pyridine-2-sulfonyl]phenyl}methyl)imidazo[1,2-a]pyrimidine-6-carboxamide]
IC50 (A2780 cells; Homo sapiens, A2780, 72 h, SRB): 20.4 nM | IC50 (NAMPT; NAMPT enzymatic assay): 11.4 nM

O=C(NCc1ccc(S(=O)(=O)c2ccc(OC(F)(F)F)c(F)c2)cc1)c1cc2ccncc2o1
IC50 (A2780 cells; Homo sapiens, A2780, 72 h, SRB): 15.6 nM | IC50 (NAMPT; NAMPT enzymatic assay): 10 nM

O=C(NCc1ccc(S(=O)(=O)c2ccc3c(c2)OCO3)cc1)c1cc2cnccc2[nH]1 [N-{[4-(2H-1,3-benzodioxole-5-sulfonyl)phenyl]methyl}-1H-pyrrolo[3,2-c]pyridine-2-carboxamide]
IC50 (A2780 cells; [1]): 7 nM | IC50 (NAMPT; NAMPT enzymatic reaction): 8 nM

CN(C)CCc1cccc(S(=O)(=O)c2ccc(CNC(=O)c3cnc4nccn4c3)cc2)c1
IC50 (A2780 cells; Homo sapiens, A2780, 72 h, SRB): 100 to 1000 nM | IC50 (NAMPT; NAMPT enzymatic assay): 3.5 nM

O=C(NCc1ccc(S(=O)(=O)c2ccnc(N3CCOCC3)c2Cl)cc1)c1cc2ccncc2s1 [N-({4-[3-chloro-2-(morpholin-4-yl)pyridine-4-sulfonyl]phenyl}methyl)thieno[2,3-c]pyridine-2-carboxamide]
IC50 (A2780 cells; Homo sapiens, A2780, 72 h, SRB): 1.8 nM | IC50 (NAMPT; NAMPT enzymatic assay): 8.5 nM

O=C(NCc1ccc(S(=O)(=O)c2cc(F)cc(OCC(F)(F)F)c2)cc1)c1cnc2[nH]ncc2c1 [N-[(4-{[3-fluoro-5-(2,2,2-trifluoroethoxy)benzene]sulfonyl}phenyl)methyl]-1H-pyrazolo[3,4-b]pyridine-5-carboxamide]
IC50 (A2780 cells; Homo sapiens, A2780, 72 h, SRB): 4.82 nM | IC50 (NAMPT; NAMPT enzymatic assay): 8 nM

O=C(NCc1ccc(S(=O)(=O)c2cc(F)cc(OCC(F)(F)F)c2)cc1)c1cnc2nccn2c1
IC50 (A2780 cells; Homo sapiens, A2780, 72 h, SRB): 1.5 nM | IC50 (NAMPT; NAMPT enzymatic assay): 1.9 nM

COc1ccc(OC)c(S(=O)(=O)c2ccc(CNC(=O)c3cc4ccncc4o3)cc2)c1OC
IC50 (A2780 cells; Homo sapiens, A2780, 72 h, SRB): 66.7 nM | IC50 (NAMPT; NAMPT enzymatic reaction): 39.9 nM

O=C(NCc1ccc(S(=O)(=O)c2ccc(Cl)c(F)c2)cc1)c1cc2ccncc2s1 [N-({4-[(4-chloro-3-fluorobenzene)sulfonyl]phenyl}methyl)thieno[2,3-c]pyridine-2-carboxamide]
IC50 (A2780 cells; [1]): 7.1 nM | IC50 (NAMPT; NAMPT enzymatic reaction): 3 nM
